Measurements as given in patent US20090274642A1, “Hair Care Compositions for Preventing Oxidative Damage to Hair, Methods of Use, and Methods of Marketing Such Compositions” (priority 2008, published 2009).

Legend:
[1] = tested on: Malassezia; experiment: Level of Malassezia after anti-dandruff actives delivered from shampoo; assay type: in vivo; conditions: 1% active in shampoo formulation, after two weeks of usage; FIG. 5
From the text: From left to right, the bars on the graph represent: 1% SeS2, 1% ZPT, 1% Climbazole, None (Control), 1% Platelet ZPT, 1SeS2, and 1% Ketoconazole.

[2] = tested on: Malassezia cells; experiment: Amplex ultra red (AMP dye) fluorescence, Malassezia cells on unsaturated lipophilic substrate; assay type: cell-based; conditions: pH 5.5; ethoxyquin added to the mixture; FIG. 2
[3] = Amplex assay, 10 μM H2O2 manually added to AMP dye; assay type: biochemical; conditions: 10 μM H2O2 added to AMP dye; pH=7.4; FIG. 3
Experimental: FIG. 3 is a graph showing the amplex fluorescence signal produced when 10 μM H2O2 is manually added to AMP dye.

SMILES	level of Malassezia [1]	fluorescence signal due to the action of Malassezia on substrate [2]	amplex fluorescence signal produced by H2O2 [3]
S=[Se]=S [SeS2, selenium sulfide]	decreased level	–	–
CC(C)(C)C(=O)C(Oc1ccc(Cl)cc1)n1ccnc1 (stereo not shown) [Climbazole, climbazole]	decreased level	–	–
[O-][n+]1ccccc1[S-].[O-][n+]1ccccc1[S-].[Zn+2] [Platelet ZPT]	decreased level	–	–
CCOc1ccc2c(c1)C(C)=CC(C)(C)N2 [ethoxyquin]	–	quenched	quenched
CC(=O)N1CCN(c2ccc(OCC3COC(Cn4ccnc4)(c4ccc(Cl)cc4Cl)O3)cc2)CC1 (stereo not shown) [Ketoconazole, ketoconazole]	decreased level	–	–
[O-]n1ccccc1=S.[O-]n1ccccc1=S.[Zn+2] [ZPT, zinc salt of 1-hydroxy-2-pyridinethione]	decreased level	–	–
